Test [1] has as its system CCL64 mink lung epithelial cells. The experiment in a line: Protection of mink lung epithelial cells from paclitaxel, sulforhodamine B stain. The conditions noted are these: PDE4 inhibitor 1 μM plus forskolin 100 μM 24 h, then paclitaxel 10 nM 48 h. It counts as cell-based. The method, then:
CCL64 mink lung epithelial cells (ATCC #CCL-64) were grown in DMEM supplemented with 10% FBS and 1% penicillin-streptomycin and seeded into 96-well plates. After overnight incubation at 37° C. cells were treated with 100 μM forskolin in combination with each of the PDE4 inhibitors (1 μM). After 24 hours of treatment, paclitaxel was added to wells at various concentrations up to 10 nM. Time zero control plates were harvested by staining with Sulforhodamine B (Skehan P. et. al., (1990), J. Nat'l Cancer Inst 82:1107-12.) After an additional 48 hours of incubation at 37° C., the plates were harvested and stained with sulforhodamine B. The absorbance of the samples was read at the optical density of 562 nm. The no-drug controls were set to 100% and values were normalized to time zero control. As indicated in Example 8, cells were pre-treated with forskolin plus various PDE4 inhibitors (1 μM) and then challenged with paclitaxel at various concentrations. The sulforhodamine B signal from the cells was expressed as percent of control (no-drug, vehicle only). An increase in signal, indicating protection, ranged from 85% to 130% with the cells pre-treated with forskolin plus a particular PDE4 inhibitor and followed by a paclitaxel challenge at 10 nM.

Test [2] concerns expanded CD34+ stem cells. Nature of the test: Flow cytometric (FACS) evaluation of surviving and apoptotic fractions of expanded CD34+ cells. It counts as cell-based, human. The method, then:
A T-test analysis ([…], with application of either equal or unequal variance [difference in standard error of the mean (sem) < or >3-fold, respectively) was performed to compare between treatment groups to determine if statistically significant differences existed (MS Excel, SAS JMP).
For orientation: A flow cytometer gives signals particle by particle.

Test [3] concerns specific early neutrophil progenitors (CFU-GMs). The experiment in a line: CFU-GM colony forming assay. The class given is cell-based, human. The conditions noted are these: for number of CFU-GM colonies with increasing amounts of the drug: anti-neoplastic drug on expanded CD34+ cells, 24 h, colonies counted after 12 to 14 days. The method, then:
Expanded CD34^+ cells, prepared according to the procedure of Example 2, were isolated and pretreated with DMSO or rolipram plus forskolin as described in Example 2. […] The cells were then plated in a semi solid growth medium for the growth of CFU-GMs following a published method with the exception that the G-CSF (10 ng/ml) was included in place of GM-CSF and erythropoietin (Dornsife, R E et al., Antimicrob Agents Chemother, 35: 322-328, (1991); Dornsife R E; Averett D R., Antimicrob Agents Chemother, 40(2): 514-519, (1996)). The CFU-GMs were counted after 12 to 14 days. The results are depicted in FIG. 3.

The test system of test [4] is human A549 lung tumor line. Nature of the test: Tumor cell growth after chemoprotectant regimen and paclitaxel, sulforhodamine B. It counts as cell-based. As to conditions: for effect of chemoprotectant regimen on paclitaxel inhibition of tumor cell growth: forskolin 100 μM plus PDE4 inhibitor 1 μM, then paclitaxel 100 nM 24 h. The protocol:
(§1) The human tumor cell lines HT-29 (colon: ATCC #HTB 38), RKO (colon, ATCC #HTB 130), lines A549 (lung, ATCC #CCL 185), and MDA468 (breast, ATCC #HTB 132) were obtained from the American Type Culture Collection and maintained in DMEM containing 10% FBS. Tumor cells were grown at 37° C. in a humidified atmosphere of 5% CO2. Adherent tumor cells were seeded into 96 well plates and incubated for six hours to allow for attachment. After six hours the chemoprotectants forskolin (100 μM) plus rolipram (1 μM) or forskolin (100 μM) plus ariflo (1 μM) were added. After overnight incubation, paclitaxel (100 nM) was added for 24 hours. Cells were then washed free of chemoprotectants and paclitaxel, placed in fresh media, and grown for 5 days. Growth was measured daily using sulforhodamine B (Skehan P. et. al., (1990), J. Nat'l Cancer Inst 82:1107-12). The results are depicted in FIG. 8.

The test system of test [5] is multiple stage neutrophil progenitors. The experiment in a line: CD15 neutrophil antigen cell-based ELISA (CELISA). As to conditions: for CD15 signal from the cell cultures with increasing concentrations of the drug: anti-neoplastic drug on expanded CD34+ cells, 24 h.
Text: Three methods, more completely described in the following examples, were utilized for a determination of cell survival and ability to produce daughter cells of primary human neutrophil progenitors: (1) a FACS assay which determined the percent of live cells by size and granularity; (2) a colony forming assay which measured the number of CFU-GM progenitors (a specific early stage neutrophil progenitor); and (3) a cell-based ELISA which measured CD15 antigen the value of which was proportional to the number of neutrophil lineage cells. This assay allows evaluation of neutrophil progenitors (cells that can divide and produce daughter neutrophil-lineage cells) at multiple stages of differentiation.
Expanded CD34^+ stem cells were isolated as described in Example 2 and grown in complete growth media. The expanded CD34^+ cells were treated with DMSO or rolipram plus forskolin as previously described. […] After the treatment, the cells were counted, washed twice with 4 ml of HBSS supplemented with 2% FBS, and resuspended in complete growth media. The expression of CD15 antigen was used as a measure of the number of neutrophil lineage cells expanded from surviving progenitors of multiple stages of differentiation.
The cells were plated at a set number into 96-well plates in 100 μl volume per well of complete media. […] The plates were harvested at different time points by centrifuging at 450 G for 10 minutes at room temperature (RT) and the cells were washed several twice in HBSS by centrifugation of the plates. The cells were removed by suspension twice in HBSS with 5 mM EDTA with 100 μl per well and transfer of the total 200 μl volume to capture plates (Costar DNA-bind, #2498) that had been pretreated with 1% gluteraldehyde and stored (Warren et al., 1995 Stem Cells 13:167-174).
For CELISA, the preservative solution (PBS, 0.1% BSA, 0.1% azide) was removed from the capture plate and the wells were washed with 100 μl PBS. […] The plates were washed twice with 300 μl PBS/well and incubated with a secondary antibody (goat anti-mouse IgM-biotin, Sigma B-9265, 0.105 μg/well, 100 μl PBS with 5% goat sera) at RT for 60 min. After three to six 200 μl/well washes, strepavidin-horseradish peroxidase (Pierce 21126, 0.1 μg/well in a 1% solution of stable peroxide buffer, Pierce 34062) was added. The plates were incubated for ten minutes and washed three to six times with 200 μl/well. For the final detection step, the chemiluminescent reagent Supersignal® Ultra (Pierce 34075) prepared just prior to use by mixing equal parts of the luminol enhancer and the stable peroxide was added to the plates (100 μl per well) and gently mixed for five minutes at RT. The plates were read on a Wallace Victor II machine for one second for chemiluminescence at 425 nm.
The data from the Wallac Victor were transferred to Excel for analysis. Averages of replicate wells from treated cells were calculated along with standard error of the mean (sem) of the counts minus the background signal from replicate wells with media only (no cells).
The subject of test [6] is human HT-29 colon tumor line. Nature of the test: Tumor cell growth after chemoprotectant regimen and paclitaxel, sulforhodamine B. It counts as cell-based. The conditions noted are these: forskolin 100 μM plus PDE4 inhibitor 1 μM, then paclitaxel 100 nM 24 h, versus DMSO. The method, then: as §1
Test [7] relates to human RKO colon tumor line. The test is described as above. It counts as cell-based. The conditions noted are these: forskolin 100 μM plus PDE4 inhibitor 1 μM, then paclitaxel 100 nM 24 h, versus DMSO. The method, then:
as §1

The subject of test [8] is normal progenitor cells. Nature of the test: Cell based assays utilized herein, PDE4 inhibitor used alone. As to conditions: without forskolin.

Counter-ions that a name gives are not always drawn.

`COC(=O)N1C[C@@H](c2ccc(OC)c(OC3CCCC3)c2)[C@](C)(C(C)=O)C1` [GI193600X]: in test [1], the “Sulforhodamine B signal (survival) as percent of no-drug control” value is on record as 120%.
Take `CC(=O)O[C@H]1C(=O)[C@@]2(C)[C@H]([C@H](OC(=O)c3ccccc3)[C@]3(O)C[C@H](OC(=O)[C@H](O)[C@@H](NC(=O)c4ccccc4)c4ccccc4)C(C)=C1C3(C)C)[C@]1(OC(C)=O)CO[C@@H]1C[C@@H]2O` [Paclitaxel, 5β,20-epoxy-1,2α,4,7β,10β,13α-hexa-hydroxytax-11-en-9-one 4,10-diacetate 2-benzoate 13-ester with (2R,3S)-N-benzoyl-3-phenylisoserine]: the surviving cell fraction in test [2] (DMSO pretreatment only 24 h, then paclitaxel 30 nM 24 h) was found to be 45%; in test [2] (DMSO pretreatment only 24 h, then paclitaxel 100 nM 24 h), 27%; in test [2] (DMSO pretreatment only 24 h, then paclitaxel 300 nM 24 h), 23%; in test [2] (DMSO pretreatment only 24 h, then paclitaxel 600 nM 24 h), 18%. For the same molecule, the “number of CFU-GM colonies with increasing amounts of the drug” value in test [3] is “did not exhibit a good dose response”. Moreover, the “inhibition of tumor cell growth” value in test [4] (paclitaxel 100 nM 24 h) is given as “not completely inhibited”. Moreover, the “CD15 signal from the cell cultures with increasing concentrations of the drug” value in test [5] is given as “decreased”.
With `COc1cc([C@@H]2c3cc4c(cc3[C@@H](O[C@@H]3O[C@@H]5CO[C@@H](C)O[C@H]5[C@H](O)[C@H]3O)[C@H]3COC(=O)[C@H]23)OCO4)cc(OC)c1O` [Etoposide, 4′-demethyl-epipodophyllotoxin 9[4,6-0-(R)-ethylidene-β-D-glucopyranoside]], the “number of CFU-GM colonies with increasing amounts of the drug” value in test [3] is given as “decreased in a dose dependent manner”. In addition, the “CD15 signal from the cell cultures with increasing concentrations of the drug” value in test [5] was “decreased”.
For the molecule `COC(=O)c1cccc(-n2c(=O)n(Cc3ccccc3)c(=O)c3cccnc32)c1` [CP-77059], the “Sulforhodamine B signal (survival) as percent of no-drug control” value in test [1] was 85%.
Consider `CCn1c(=O)c2ccccc2n(-c2cccc([N+](=O)[O-])c2)c1=O` [Nitraquazone], for which the “Sulforhodamine B signal (survival) as percent of no-drug control” value in test [1] came out at 115%.
Regarding `CC[C@]1(O)C[C@@H]2CN(CCc3c([nH]c4ccccc34)[C@@](C(=O)OC)(c3cc4c(cc3OC)N(C)[C@H]3[C@@](O)(C(=O)OC)[C@H](OC(C)=O)[C@]5(CC)C=CCN6CC[C@]43[C@@H]65)C2)C1` [Vinblastine, vincaleukoblastine sulfate], the “CD15 signal from the cell cultures with increasing concentrations of the drug” value in test [5] is “decreased”.
Same read-out and setting: to `CCC1=C[C@@H]2CN(C1)Cc1c([nH]c3ccccc13)[C@@](C(=O)OC)(c1cc3c(cc1OC)N(C)[C@H]1[C@@](O)(C(=O)OC)[C@H](OC(C)=O)[C@]4(CC)C=CCN5CC[C@]31[C@@H]54)C2` (relative stereo) [Vinorelbine, 3′,4′-didehydro-4′-deoxy-C′-norvincaleukoblastine [R-(R*,R*)-2,3-dihydroxybutanedioate (1:2)(salt)]] belongs “decreased”.
On to `COc1ccc([C@]2(C#N)CC[C@@H](C(=O)O)CC2)cc1OC1CCCC1` [Ariflo, cis-4-cyano-4-[3-(cyclopentyloxy)-4-methoxyphenyl]cyclohexane-1-carboxylic acid], for which the “Sulforhodamine B signal (survival) as percent of no-drug control” value in test [1] was 110%. In addition, the figures for the “effect of chemoprotectant regimen on paclitaxel inhibition of tumor cell growth” value in test [4], in test [6] and in test [7] were “no additional protection”, “did not effect the inhibition of tumor cell growth” and “did not effect the inhibition of tumor cell growth”, respectively.
`O=c1[nH]cc(F)c(=O)[nH]1` [5-fluorouracil, 5-fluoro-2,4-(1-H,3H) pyrimidinedione]: in test [3], the “number of CFU-GM colonies with increasing amounts of the drug” value was “decreased in a dose dependent manner”. For the same molecule, the “CD15 signal from the cell cultures with increasing concentrations of the drug” value in test [5] was “decreased”.
As for `COc1ccc(C(=O)Nc2c(Cl)cncc2Cl)cc1OC1CCCC1` [Piclamilast, N-(3,5-dichloropyrid-4-yl)-3-cyclopentyloxy-4-methoxybenzamide], the “Sulforhodamine B signal (survival) as percent of no-drug control” value in test [1] worked out at 130%.
Consider `COc1ccc(C2CNC(=O)C2)cc1OC1CCCC1` (stereo not shown) [Rolipram], for which, in test [2] (pretreatment with rolipram plus forskolin), the “apoptotic fraction in paclitaxel treated cells compared with DMSO pretreatment” value was “significantly reduced the apoptotic fraction”. The surviving cell fraction worked out at 86% in test [2] (rolipram 1 μM plus forskolin 100 μM 24 h, then paclitaxel 30 nM 24 h); 81% in test [2] (rolipram 1 μM plus forskolin 100 μM 24 h, then paclitaxel 100 nM 24 h); 63% in test [2] (rolipram 1 μM plus forskolin 100 μM 24 h, then paclitaxel 300 nM 24 h); 59% in test [2] (rolipram 1 μM plus forskolin 100 μM 24 h, then paclitaxel 600 nM 24 h). In test [3] (rolipram plus forskolin prior to 5-fluorouracil, etoposide or paclitaxel, versus DMSO), the “survival of CFU-GM progenitors” value was “increased the survival of CFU-GM progenitors”. Besides, in test [1], the “Sulforhodamine B signal (survival) as percent of no-drug control” value was 110%. The “effect of chemoprotectant regimen on paclitaxel inhibition of tumor cell growth” value was “no additional protection” in test [4], “did not effect the inhibition of tumor cell growth” in test [6] and “did not effect the inhibition of tumor cell growth” in test [7]. Further, in test [8], the protective effect entry is listed as “little protective effect”. The “effect of pretreatment on toxicity towards neutrophil progenitors compared to DMSO” value in test [5] (rolipram plus forskolin, then carboplatin) is on record as “no significant difference”; in test [5] (rolipram plus forskolin, then cisplatin) it was “significantly increase the toxicity”; in test [5] (rolipram plus forskolin, then doxorubicin), “significantly increase the toxicity”. Besides, in test [5] (rolipram plus forskolin, then paclitaxel, 5-FU, etoposide, vinblastine, vinorelbine, methotrexate or topotecan, 99% confidence), the “CD15 signal after pretreatment versus DMSO” value is reported as “increased the CD15 signal antigen to a statistically significant level”.
With `O=c1c2cccnc2n(-c2cccc([N+](=O)[O-])c2)c(=O)n1Cc1ccncc1` [RS-25344], the “Sulforhodamine B signal (survival) as percent of no-drug control” value in test [1] is reported as 105%.
As for `CCCCn1c(=O)c2c(ncn2CC(C)=O)n(CCCC)c1=O` [Denbufylline, 7-acetonyl,1,3dibutylxanthine], the “Sulforhodamine B signal (survival) as percent of no-drug control” value in test [1] is given as 95%.
As for `CN(Cc1cnc2nc(N)nc(N)c2n1)c1ccc(C(=O)N[C@@H](CCC(=O)O)C(=O)O)cc1` [methotrexate, N-[4[[(2,4-diamino-6-pteridinyl)methyl]methylamino]benzoyl]-L-glutamic acid], the “CD15 signal from the cell cultures with increasing concentrations of the drug” value in test [5] was “decreased”.
`CC[C@@]1(O)C(=O)OCc2c1cc1n(c2=O)Cc2cc3c(CN(C)C)c(O)ccc3nc2-1` [topotecan, (S)-10-[(dimethylamino)methyl]-4-ethyl-4,9-dihydroxy-1H-pyrano[3′,4′,6,7]indolizino[1,2-b]quinoline-3,14(4H,12H)-dione monohydrochloride]: the “CD15 signal from the cell cultures with increasing concentrations of the drug” value in test [5] was “decreased”.

For the origin of these results see patent US20030171306A1, “Cancer treatment method” (priority 2002, published 2003).
